{"source": "paper PMC4876444", "about": "“Two-Photon Enzymatic Probes Visualizing Sub-cellular/Deep-brain Caspase Activities in Neurodegenerative Models” (Scientific Reports, 2016)", "test_system": "caspase-3-like activities in STS-induced BV2 and HeLa cells", "test": "TPFM live-cell imaging of STS-induced apoptotic cells", "assay_type": "cell-based, mouse, human", "details": "BV2 (STS 2 μM) and HeLa (STS 1 μM) cells, 4 h STS, probe 24 μM 1 h; not in mock cells", "procedure": "Figure 3 Bioimaging of active caspases in live cells. TPFM (λex = 760 nm; λem = 480-550 nm for all AAN-probes) of STS-induced (a) BV2 cells (2 μM, 4 h) and (b) HeLa cells (1 μM, 4 h) using C3RA/C8RA (24 μM, 1 h). Panels 3/6: cells pretreated with Z-VAD(OMe)-FMK (50 μM, 1 h) before STS addition. Panels 1/4: normal cells (DMSO). (c) WB analysis of cleaved caspase-3/-8 from (a,b). (d) TPFM of normal/apoptotic Hela cells imaged by C3RA (24 μM, up) or Ac-DEVD-AMC (40 μM, down; λem = 420–500 nm). Panels 1/3: normal cells. Panels 2/4: STS-induced cells (1 μM, 4 h). Bottom inset: bright field. Top inset: one-photon images (λex = 405 nm). (e) Real-time imaging of caspase-3/-8-like activities in live BV2 cells using 24 μM of C3RA (top)/C8RA (bottom) upon STS (2 μM) stimulation over 2 h. (f) Graphical quantification of RFU extracted from (e). (g) WB analysis of time-dependent caspase-3/-8 cleavage from STS-induced (2 μM) BV2 lysates. (h) WB analysis of time-dependent caspase-3/-7/-8 activation by detection of cleaved caspase-3/-7/-8 from lysates of HeLa cells stimulated with STS (2 μM). (i) RFU from real-time imaging of caspase-3-like activity in live HeLa cells with C3RA/C3RM/C3RE (24 μM, added 1 h before STS) upon STS (2 μM) stimulation. (j) Representative images (t = 60 min) from (i). (k) IF of STS-stimulated (2 μM, 2 h) HeLa cells by anti-caspase-3 (p17) antibody (red) with 3D projections of z-stack images at 90° view and merged with MitoTracker (green, left) or ER tracker (cyan, right). (l) TPFM of caspase-1 activation in primary cortical neurons upon glucose deprivation (GD, 8 h) followed by 1-h incubation with C1RB (24 μM) or C1FS (12 μM; λem = 450–550 nm). Inset: bright field images. NC: neuron cells incubated in normal neurobasal medium. Scale bar = 10 μm in all images.\nNIH/3T3, HeLa and BV2 cell lines used in our experiments were cultured in DMEM medium supplemented with 10% (for NIH/3T3 and HeLa) or 5% (for BV2) fetal bovine serum (FBS), with 100.0 mg/L streptomycin and 100 IU/mL penicillin. […]"}
{"smiles": "CC(=O)N[C@@H](CC(=O)O)C(=O)N[C@@H](CCC(=O)O)C(=O)N[C@H](C(=O)N[C@@H](CC(=O)O)C(=O)Nc1ccc2cc(C(C)=O)ccc2c1)C(C)C", "note": "[C3RA, Ac-DEVD-AAN]", "values": [{"measurement": "intracellular two-photon fluorescence after STS treatment", "result": "strong intracellular fluorescence"}]}
